Experiments:
C2C12 AMPKα1α2+/+ cells = assay: Glucose uptake (3H-2-deoxyglucose) in differentiated C2C12 AMPKα1α2+/+ cells; format: cell-based, murine
Excerpt: (§1) C2C12 AMPK α1α2 double knockout cell lines were generated by transient transfection of wild type cells with plasmids containing Cas9 enzyme linked to green fluorescent protein expression and Cas9 guide RNA sequences targeting the murine AMPK α1 subunit (sc-430618, SantaCruz) and the murine AMPK α2 subunit (sc-430803, SantaCruz). Cells positive for green fluorescent protein expression were single cell sorted by flow cytometry into 96-well plates containing growth medium and analysed for loss of AMPK signaling following expansion of the clones.
(§2) Differentiated C2C12 AMPKα1α2+/+ and AMPKα1α2−/− cells were treated with either vehicle (0.2% DMSO), 30 μM or 100 μM Lusianthridin for 1 h at 37° C. […] Finally, differentiated C2C12 AMPKα1α2+/+ and AMPKα1α2−/− cells were treated with either vehicle (0.2% DMSO) or 100 μM Lusianthridin in the presence or absence of 15 nM Wortmanin for 1 h at 37° C. For the Wortmanin experiments, differentiated C2C12 cells were pre-incubated with DMSO or Wortmanin for 1 h prior to treatment.
(§3) Glucose uptake was determined by monitoring the uptake of 3H-2-deoxyglucose into cells. C2C12 AMPKα1α2+/+ and AMPKα1α2−/− cells were maintained in DMEM GlutaMAX supplemented with 20% (vol/vol) FBS and 100 U/ml penicillin G, and 100 μg/ml streptomycin. […] Cells were lysed and the quantity of ^3H determined in these samples using a scintillation counter.

AMPKα1β1γ1 (111) = biological target: T1, AMPKα1β1γ1 (111) (Homo sapiens, UniProt P54619+Q13131+Q9Y478); assay: AMPK in vitro activity assay (HTRF-KinEASE), α1-containing complex; format: biochemical; conditions: fold activation vs complex without compound
T1 construct: His; made in house; host or cells: bacteria
Experimental: (§4) Lusianthridin (CAS 87530-30-1) was isolated from Thunia alba fruit. It was sourced from Analyticon (NP-012362). The plant was purchased through Analyticon's biomaterial supplier in 2003. The country of origin is Nepal. The AMPK heterotrimers were expressed in bacteria and purified through the His-α subunit by nickel purification. AMPK complexes were purified through gel filtration and phosphorylated by incubation with CaMKKβ, and further purified with a final gel filtration purification step. Phosphorylated purified AMPK was incubated with varying concentrations of ligand for 30 mins using substrate and reagents from the HTRF-KinEASE Cisbio assay kit (STK S1 Kit). Phosphorylation of the substrate was measured by incubating with donor and acceptor antibodies for 2 h at room temperature as per the manufacturer's protocol (and Coulerie et al., (2016) PMID: 27792327) and phosphorylated peptide detected by performing HTRF. The 665 nm/620 nm ratio was determined and the results are plotted as fold activation compared to the respective AMPK complex without any compound.

C2C12 AMPKα1α2−/− cells = assay: Glucose uptake (3H-2-deoxyglucose) in differentiated C2C12 AMPKα1α2−/− cells; format: cell-based, murine; conditions: 30 or 100 μM Lusianthridin, 300 nM Insulin, 1 h at 37° C
Excerpt: as §1, §2, §3

[1] = test system: AMPK substrate, acetyl-CoA carboxylase (ACC); assay: pACC HTRF assay in U2OS Flp-In T-REx cells; format: cell-based; conditions: 1 h, varying concentrations, dose-dependent
Experimental: (§5) U2OS Flp-In T-REx cells were seeded at 100 K in a 96-well plate and left overnight at 37 C in DMEM GlutaMAX (Thermo Fisher Scientific) supplemented with 10% (vol/vol) FBS and 100 U/ml penicillin G, and 100 μg/ml streptomycin. Cells were treated for 1 h with varying concentrations of Lusianthridin in media lacking FBS and then cells were lysed in 50 μl of Cisbio lysis buffer #1 supplemented with blocking solution as per the manufacturer's protocol (Cisbio). Cells were lysed for 30 mins at room temperature before 16 μl of lysate was incubated with 4 μl of the HTRF antibodies (1:40 dilution of the acceptor and donor (p)ACC antibodies, as per the manufacturers protocol). Lysates were incubated overnight with the antibodies before 665 nm/620 nm ratio was determined using a MolecularDevices i3 plate reader (with a HTRF cartridge add-on). For western blot analysis, SDS-sample buffer was added to the remainder of the lysate, denatured at 95 C and then subjected to western blot analysis with phospho-specific and total ACC antibodies (Cell Signalling). Bands were visualized by incubating with Li-Cor secondary antibody and scanned on a Li-Cor Odyssey machine.

[2] = biological target: T2, AMPK α2β1γ1 R298G (211 R298G) mutant (Homo sapiens, UniProt P54619+P54646+Q9Y478, R299G); assay: AMPK in vitro activity assay (HTRF-KinEASE), γ1 R298G mutant; format: biochemical; conditions: mutation in the γ1 AMP binding pocket
T2 construct: His; made in house; host or cells: bacteria
Experimental: as §4

[3] = test system: AMPK β1 S108A mutant (phosphorylation of ACC); assay: pACC (HTRF and western blot) in AMPKβ1/β2 double knockout U2-OS Flp-In T-Rex cells stably expressing β1 S108A mutant; format: cell-based, human
Excerpt: AMPKβ1/β2 double knockout U2-OS Flp-In™ T-Rex™ cell lines were generated by Horizon Discovery (Cambridge, UK). Cells were genotyped and analysed by western blotting to confirm that there was a complete knockout of AMPKβ1/β2. We took these AMPKβ1/β2 double knockout cells, and re-introduced the expression of human β1 wild-type (WT) or a β1 Serine 108 to alanine mutation (S108A). This was achieved using the Flp-In™ system (Invitrogen) present in this cell line and stable cells expressing β1 WT or a β1 S108A mutant were generated according to the manufacturers' protocols. Re-expression of the β1 subunit was confirmed by western blot analysis.
Cells stably expressing β1 WT or a β1 S108A mutant were treated with varying concentrations of Lusianthridin and subjected to the pACC HTRF (Cisbio) assay or western blot analysis to determine phosphorylation of the AMPK substrate, ACC, in cells lysates. Western blots were quantified using the LI-COR odyssey system and shown as the ratio of the antibody signal from pACC divided by total ACC.

[4] = test system: AMPK substrate, acetyl-CoA carboxylase (ACC); assay: Western blot of pACC / total ACC in U2OS Flp-In T-REx lysates; format: cell-based; conditions: varying concentrations
Experimental: as §5

T1 sequence (Q13131 whole entry): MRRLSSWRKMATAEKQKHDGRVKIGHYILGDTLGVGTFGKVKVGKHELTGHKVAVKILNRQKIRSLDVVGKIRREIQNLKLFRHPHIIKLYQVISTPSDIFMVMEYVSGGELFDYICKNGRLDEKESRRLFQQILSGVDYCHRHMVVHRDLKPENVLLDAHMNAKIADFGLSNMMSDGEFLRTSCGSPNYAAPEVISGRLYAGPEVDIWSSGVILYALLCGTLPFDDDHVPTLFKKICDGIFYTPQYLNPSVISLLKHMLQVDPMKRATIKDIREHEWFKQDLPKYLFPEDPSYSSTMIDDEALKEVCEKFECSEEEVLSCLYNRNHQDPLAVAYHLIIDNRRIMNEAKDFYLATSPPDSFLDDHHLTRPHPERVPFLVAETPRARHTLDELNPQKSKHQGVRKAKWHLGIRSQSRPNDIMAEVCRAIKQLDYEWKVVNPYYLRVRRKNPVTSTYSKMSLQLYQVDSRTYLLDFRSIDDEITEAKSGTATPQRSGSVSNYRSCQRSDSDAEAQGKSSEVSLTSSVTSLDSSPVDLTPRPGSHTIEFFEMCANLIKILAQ
T1 sequence (Q9Y478 whole entry): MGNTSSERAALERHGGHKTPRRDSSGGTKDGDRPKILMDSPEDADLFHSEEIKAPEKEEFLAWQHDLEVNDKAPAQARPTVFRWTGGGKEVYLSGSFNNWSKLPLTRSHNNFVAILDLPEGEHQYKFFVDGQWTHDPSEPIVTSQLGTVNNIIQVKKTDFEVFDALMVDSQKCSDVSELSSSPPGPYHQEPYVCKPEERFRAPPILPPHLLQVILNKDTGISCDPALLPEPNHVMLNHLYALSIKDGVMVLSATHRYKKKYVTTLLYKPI
T1 sequence (P54619 whole entry): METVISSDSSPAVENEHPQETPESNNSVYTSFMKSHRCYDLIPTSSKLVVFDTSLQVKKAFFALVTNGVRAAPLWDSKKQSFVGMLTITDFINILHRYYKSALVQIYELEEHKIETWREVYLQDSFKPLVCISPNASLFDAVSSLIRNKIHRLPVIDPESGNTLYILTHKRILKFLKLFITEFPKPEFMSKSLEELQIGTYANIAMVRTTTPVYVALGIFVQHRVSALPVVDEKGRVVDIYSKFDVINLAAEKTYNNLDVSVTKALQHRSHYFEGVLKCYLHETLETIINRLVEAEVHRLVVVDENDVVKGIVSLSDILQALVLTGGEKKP
T2 sequence (P54646 whole entry): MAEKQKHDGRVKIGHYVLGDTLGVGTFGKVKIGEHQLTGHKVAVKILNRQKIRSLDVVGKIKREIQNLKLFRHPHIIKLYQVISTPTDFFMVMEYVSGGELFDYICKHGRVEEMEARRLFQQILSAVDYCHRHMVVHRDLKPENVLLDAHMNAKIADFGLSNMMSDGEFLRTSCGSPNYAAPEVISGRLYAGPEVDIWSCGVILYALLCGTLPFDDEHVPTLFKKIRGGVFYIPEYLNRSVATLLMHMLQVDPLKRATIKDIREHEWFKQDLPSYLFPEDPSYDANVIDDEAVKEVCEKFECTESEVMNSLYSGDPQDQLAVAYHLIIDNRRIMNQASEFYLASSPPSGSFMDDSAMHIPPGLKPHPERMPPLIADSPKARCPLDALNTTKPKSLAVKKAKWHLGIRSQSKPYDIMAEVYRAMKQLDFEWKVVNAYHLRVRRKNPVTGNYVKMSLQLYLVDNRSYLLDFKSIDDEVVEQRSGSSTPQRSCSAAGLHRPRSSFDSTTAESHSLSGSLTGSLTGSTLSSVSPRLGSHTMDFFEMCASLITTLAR
T2 sequence (Q9Y478 whole entry): as the sequence (Q9Y478 whole entry) above
T2 sequence (P54619 whole entry R299G): as the sequence (P54619 whole entry) above, with R299G counted along it

COc1cc(O)c2c(c1)CCc1cc(O)ccc1-2 [Lusianthridin, 7-Methoxy-9,10-dihydrophenanthrene-2,5-diol]
glucose uptake (fold change relative to control) (C2C12 AMPKα1α2+/+ cells; C2C12 AMPKα1α2+/+, 30 or 100 μM Lusianthridin, 300 nM Insulin, 1 h at 37° C): increase in glucose uptake
effect of Wortmanin on stimulated glucose uptake (C2C12 AMPKα1α2+/+ cells; in the presence of 15 nM Wortmanin (1 h pre-incubation), 100 μM Lusianthridin or 300 nM Insulin, 1 h): no effect
activation of bacterially-expressed AMPKα1β1γ1 complexes (AMPKα1β1γ1 (111)): Activates
glucose uptake (fold change relative to control) (C2C12 AMPKα1α2−/− cells): abolished
phosphorylation of the AMPK substrate ACC (pACC HTRF) [1]: increases
activation of AMPK α2β1γ1 γ1 R298G mutant complexes [2]: still activates
phosphorylation of ACC (western blot) [3]: did not increase phosphorylation of ACC
pACC (HTRF assay) ([3]; varying concentrations, 30 mins at 37 C): did not increase pACC
phosphorylation of ACC by western blot (AMPK activation in cells) [4]: activates AMPK in cells

Reference: US11583507B2, “Direct AMPK activator compounds” (SOCIETE DES PRODUITS NESTLE S.A., priority 2018, dated 2023)
